What was measured:
[1] = test system: wild-type and variant SNAP-GIPR; test: Single-concentration GIP cAMP response by HTRF in AD293 cells; format: cell-based, human; conditions: for HTRF cAMP: 100 nM GIP, AD293, 30 min, n=8;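 as to AD293 100 nM HTRF: ratio to experiment-wide average response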;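 as to AD293 100 pM HTRF: ratio to experiment-wide average response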
Procedure: All variants were tested in parallel on each occasion to control for transfection efficiency differences between experiments.

[2] = test system: wild-type and variant SNAP-GIPR; test: cADDis cAMP imaging in AD293 cells, ensemble, expression-matched and per decile; format: cell-based, human;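 as to AD293 100 nM cADDis: Ensemble cells as % of IBMX/FSK response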;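 as to AD293 100 pM cADDis: Ensemble cells as % of IBMX/FSK response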
In short: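 Surface GIPR and cAMP are measured in individual AD293 cells coexpressing SNAP-tagged receptor and the green cADDis biosensor, imaged live at 37°C. Responses are reported ensemble, expression-matched against wild-type deciles with extremes trimmed, or within each variant's own surface deciles.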

[3] = test system: wild-type and variant SNAP-GIPR; test: Constitutive and agonist-mediated internalization, reversible SNAP-tag labelling, AD293 cells; format: cell-based, human; parameters: key to Internalisation, Vehicle / Internalisation, +GIP / Internalisation, GIP-only: % internalization: residual fluorescence after Mesna vs pre-Mesna; Surface expression: unit not given here
In short: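 Percentage internalization calculated as specific SNAP fluorescence remaining after 10 min Mesna exposure, relative to pre-Mesna signal, imaged in TNE buffer (pH 8.6).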

[4] = test system: wild-type and variant SNAP-GIPR in Gipr-/- mouse islets; test: Insulin secretion from Gipr-/- mouse islets transduced with GIPR adenoviruses; format: cell-based; conditions: Gipr-/- islets, 11 mM glucose, 100 nM GIP
Procedure: Isolated islets used for insulin secretion assays were treated in 1.5-ml microcentrifuge tubes. Eight-ten islets were used per well with two-three technical replicates per condition. […] At the end of the treatment, supernatants containing the secreted insulin or glucagon were collected, centrifuged at 1000g for 5 min, and transferred to fresh tubes. […] The lysates were sonicated 3× for 10 s in a water bath and centrifuged at 10,000g for 10 min, and the supernatants were collected. The samples were stored at −20°C until the insulin or glucagon concentrations were determined using an Insulin Ultra-Sensitive HTRF Assay kit (62IN2PEG, Revvity) or an HTRF Glucagon Detection Kit (62CGLPEG, Revvity) respectively, according to the manufacturer’s instructions. GraphPad Prism 9.0 was used for the generation of the standard curve and sample concentration extrapolation. The total insulin or glucagon content was calculated by adding the secreted insulin to the insulin content of the lysates, and secretion was reported as the percentage release of total. The percent secretion of islets treated with agonist was normalized to that of islets treated with vehicle and reported as a fold change.

CC[C@H](C)[C@H](NC(=O)[C@H](CO)NC(=O)[C@H](Cc1ccc(O)cc1)NC(=O)[C@H](CC(=O)O)NC(=O)[C@H](CO)NC(=O)[C@@H](NC(=O)[C@H](Cc1ccccc1)NC(=O)[C@@H](NC(=O)CNC(=O)[C@H](CCC(=O)O)NC(=O)[C@H](C)NC(=O)[C@@H](N)Cc1ccc(O)cc1)[C@@H](C)O)[C@@H](C)CC)C(=O)N[C@@H](C)C(=O)N[C@@H](CCSC)C(=O)N[C@@H](CC(=O)O)C(=O)N[C@@H](CCCCN)C(=O)N[C@H](C(=O)N[C@@H](Cc1c[nH]cn1)C(=O)N[C@@H](CCC(N)=O)C(=O)N[C@@H](CCC(N)=O)C(=O)N[C@@H](CC(=O)O)C(=O)N[C@@H](Cc1ccccc1)C(=O)N[C@H](C(=O)N[C@@H](CC(N)=O)C(=O)N[C@@H](Cc1c[nH]c2ccccc12)C(=O)N[C@@H](CC(C)C)C(=O)N[C@@H](CC(C)C)C(=O)N[C@@H](C)C(=O)N[C@@H](CCC(N)=O)C(=O)N[C@@H](CCCCN)C(=O)NCC(=O)N[C@@H](CCCCN)C(=O)N[C@@H](CCCCN)C(=O)N[C@@H](CC(N)=O)C(=O)N[C@@H](CC(=O)O)C(=O)N[C@@H](Cc1c[nH]c2ccccc12)C(=O)N[C@@H](CCCCN)C(=O)N[C@@H](Cc1c[nH]cn1)C(=O)N[C@@H](CC(N)=O)C(=O)N[C@H](C(=O)N[C@H](C(=O)N[C@@H](CCC(N)=O)C(=O)O)[C@@H](C)O)[C@@H](C)CC)C(C)C)[C@@H](C)CC [GIP, glucose-dependent insulinotropic polypeptide, reference compound]
HTRF cAMP ([1]; A207V, mean): 1.3964 vs. experimental average | HTRF cAMP ([1]; A268V, mean): 1.283 vs. experimental average | cAMP response ([1]; AD293, 100 pM GIP, E252D and A268V): GoF cAMP responses | cAMP response ([1]; AD293, 100 pM GIP, E354Q): increased response | cAMP response ([1]; AD293, 100 pM GIP, R136W and R131S): reduced cAMP response | cAMP response ([1]; AD293, 100 pM and 100 nM GIP, 10 variants with lowest surface expression): reduced cAMP responses | cAMP response at higher concentration ([1]; AD293, 100 nM GIP, S64A, R217L, L262H): at least a partially restored response | HTRF cAMP ([1]; D66G, mean): 0.328 vs. experimental average | HTRF cAMP ([1]; E252D, mean): 1.787 vs. experimental average | HTRF cAMP ([1]; E288G, mean): 0.3648 vs. experimental average | HTRF cAMP ([1]; E354Q, mean): 1.4229 vs. experimental average | HTRF cAMP ([1]; E463Q, mean): 1.311 vs. experimental average | HTRF cAMP ([1]; G438S, mean): 1.655 vs. experimental average | HTRF cAMP ([1]; I378M, mean): 1.479 vs. experimental average | HTRF cAMP ([1]; I403V, mean): 1.595 vs. experimental average | HTRF cAMP ([1]; L100F, mean): 1.598 vs. experimental average | HTRF cAMP ([1]; L262H, mean): 1.14 vs. experimental average | HTRF cAMP ([1]; L262V, mean): 1.331 vs. experimental average | HTRF cAMP ([1]; L304R, mean): 0.7364 vs. experimental average | HTRF cAMP ([1]; R101H, mean): 0.2474 vs. experimental average | HTRF cAMP ([1]; R131S, mean): 1.306 vs. experimental average | HTRF cAMP ([1]; R136W, mean): 1.324 vs. experimental average | HTRF cAMP ([1]; R183Q, mean): 0.2411 vs. experimental average | HTRF cAMP ([1]; R190Q, mean): 0.2205 vs. experimental average | HTRF cAMP ([1]; R196G, mean): 1.594 vs. experimental average | HTRF cAMP ([1]; R217L, mean): 1.142 vs. experimental average | HTRF cAMP ([1]; R300W, mean): 1.632 vs. experimental average | HTRF cAMP ([1]; R336P, mean): 1.143 vs. experimental average | HTRF cAMP ([1]; R341P, mean): 0.1915 vs. experimental average | HTRF cAMP ([1]; R404H, mean): 1.255 vs. experimental average | HTRF cAMP ([1]; S64A, mean): 1.061 vs. experimental average | HTRF cAMP ([1]; S415G, mean): 1.323 vs. experimental average | HTRF cAMP ([1]; S415I, mean): 1.113 vs. experimental average | HTRF cAMP ([1]; S447T, mean): 1.418 vs. experimental average | HTRF cAMP ([1]; T116R, mean): 1.485 vs. experimental average | HTRF cAMP ([1]; WT, mean): 1.495 vs. experimental average | cADDis cAMP response at low own expression ([2]; AD293, 100 pM GIP, E354Q (lesser extent A207V, E252D, A268V)): increased responses relative to the wild type | cADDis cAMP response, expression-matched ([2]; AD293, 100 pM GIP, R101H, S64A, R217L, L262H, L304R): at least partly restored to wild-type levels | cADDis cAMP response at highest own expression ([2]; AD293, 100 pM GIP, R136W, R131S, T116R, S64A): wild type–like responses | cADDis cAMP response, expression-matched ([2]; AD293, 100 pM GIP, all variants with reduced ensemble response): still showed LoF | cADDis cAMP response, expression-matched ([2]; AD293, 100 pM and 100 nM GIP, R183Q, R190Q, D66G, E288G): no rescue of function | GIP-induced increase in internalization ([3]; 100 nM GIP, R190Q, R101H, E288G, D66G, R183Q, either/both AD293 and INS-1): statistically significant reductions in internalization | internalization ([3]; 100 nM GIP, most variants, AD293 and INS-1): wild type–like internalization | GIP-induced insulin secretion ([4]; 30 min, E354Q vs wild-type): blunted insulinotropic response | GIP-induced insulin secretion ([4]; R101H and E288G, not significant): apparent reduced GIP-induced insulin secretion | GIP-induced insulin secretion ([4]; R190Q, statistically significant): reduced GIP-induced insulin secretion

B1: WT (protein, UniProt P48546 22-466, looked up)
Gastric inhibitory …: RAETGSKGQTAGELYQRWERYRRECQETLAAAEPPSGLACNGSFDMYVCWDYAAPNATARASCPWYLPWHHHVAAGFVLRQCGSDGQWGLWRDHTQCENPEKNEAFLDQRLILERLQVMYTVGYSLSLATLLLALLILSLFRRLHCTRNYIHINLFTSFMLRAAAILSRDRLLPRPGPYLGDQALALWNQALAACRTAQIVTQYCVGANYTWLLVEGVYLHSLLVLVGGSEEGHFRYYLLLGWGAPALFVIPWVIVRYLYENTQCWERNEVKAIWWIIRTPILMTILINFLIFIRILGILLSKLRTRQMRCRDYRLRLARSTLTLVPLLGVHEVVFAPVTEEQARGALRFAKLGFEIFLSSFQGFLVSVLYCFINKEVQSEIRRGWHHCRLRRSLGEEQRQLPERAFRALPSGSGPGEVPTSRGLSSGTLPGPGNEASRELESYC
AD293 100 pM HTRF ([1]; Fig S3F, AD293, 100 pM, HTRF, mean): 1.584 | AD293 100 nM HTRF ([1]; Fig S3F, AD293, 100 nM, HTRF, mean): 1.495 | AD293 100 pM cADDis ([2]; Fig S3F, AD293, 100 pM, cADDis, mean): 34.2953 | AD293 100 nM cADDis ([2]; Fig S3F, AD293, 100 nM, cADDis, mean): 38.14 | +GIP internalisation (100 nM) ([3]; Fig 4E, GIP 100 nM, Mean): 0.9729 | GIP-specific internalisation (100 nM) ([3]; Fig 4E, GIP 100 nM, Mean): 0.2717 | Constitutive internalisation (100 nM) ([3]; Fig 4E, Mean): 0.7012 | Surface expression ([3]; Fig 4E, Mean): 1.75 | Internalisation, +GIP ([3]; Fig S4C, AD293, Mean): 55.4256 | Internalisation, GIP-only ([3]; Fig S4C, AD293, Mean): 15.538 | Internalisation, Vehicle ([3]; Fig S4C, AD293, Mean): 39.8877
